Measured values reported in ChEMBL document CHEMBL1926672, “New 5-benzylidenethiazolidin-4-one inhibitors of bacterial MurD ligase: design, synthesis, crystal structures, and biological evaluation” (Eur J Med Chem, 2011).
pIC50: −log10 of the molar value. ≈ marks a conversion by molar mass, not a printed value. Values belong to the molecule of their own block, whether it stands above or below them.

Key:
[1] = Inhibition of Escherichia coli MurD ligase assessed as addition of D-[14C]glu to UDP-N-acetyl-muramoyl-L-alanine after 30 mins by radioactivity assay
Staphylococcus aureus = experiment: Antibacterial activity against Staphylococcus aureus ATCC 29213 after 18 to 24 hrs by macrodilution technique; format: functional
Pseudomonas aeruginosa = experiment: Antibacterial activity against Pseudomonas aeruginosa […] after 18 to 24 hrs by macrodilution technique; format: functional
Enterococcus faecalis = experiment: Antibacterial activity against Enterococcus faecalis ATCC 29212 after 18 to 24 hrs by macrodilution technique; format: functional
Escherichia coli [2] = experiment: Antibacterial activity against Escherichia coli ATCC 25922 after 18 to 24 hrs by macrodilution technique; format: functional
[3] = Inhibition of Escherichia coli MurD ligase assessed as residual activity after 15 mins using UDP-MurNAc-L-Ala substrate by malachite green colorimetric method
Escherichia coli [4] = experiment: Inhibition of Escherichia coli MurD ligase assessed as residual activity at 500 uM after 15 mins using UDP-MurNAc-L-Ala substrate by malachite green colorimetric method
Escherichia coli [5] = experiment: Inhibition of Escherichia coli MurD ligase assessed as residual activity at 250 uM after 15 mins using UDP-MurNAc-L-Ala substrate by malachite green colorimetric method

- pIC50 [1]: 4.55
- MIC (Staphylococcus aureus): > 128 µg/mL
- MIC (Pseudomonas aeruginosa): > 128 µg/mL
- MIC (Enterococcus faecalis): > 128 µg/mL
- MIC (Escherichia coli [2]): > 128 µg/mL
Compound: O=C(O)CC[C@@H](NC(=O)c1ccc(COc2cccc(/C=C3\SC(=S)NC3=O)c2)cc1)C(=O)O
- MBC (Staphylococcus aureus): > 128 µg/mL
- MBC (Pseudomonas aeruginosa): > 128 µg/mL
- MBC (Enterococcus faecalis): > 128 µg/mL
- MBC (Escherichia coli [2]): > 128 µg/mL

- pIC50 [3]: 3.89
Compound: O=C(O)CC[C@@H](NC(=O)c1cccc(COc2ccc(/C=C3\SC(=O)NC3=O)cc2)c1)C(=O)O

- pIC50 [3]: 4.12
Compound: O=C(O)CC[C@@H](NC(=O)c1cccc(COc2ccc(/C=C3\SC(=S)NC3=O)cc2)c1)C(=O)O

- pIC50 [1]: 4.35
Compound: O=C(O)CC[C@@H](NC(=O)c1cccc(CNc2ccc(/C=C3\SC(=S)NC3=O)cc2)c1)C(=O)O

- Activity (Escherichia coli [4]): 65%
Compound: O=C(O)CC[C@@H](NC(=O)c1cccc(COc2cccc(/C=C3\SC(=O)NC3=O)c2)c1)C(=O)O

- pIC50 [1]: 4.33
Compound: O=C(O)CC[C@@H](NC(=O)c1cccc(COc2cccc(/C=C3\SC(=S)NC3=O)c2)c1)C(=O)O

Second part, the molecule before the results:

Compound: O=C(O)CC[C@@H](NS(=O)(=O)c1ccc(COc2ccc(/C=C3\SC(=O)NC3=O)cc2OCC(=O)O)cc1)C(=O)O
- pIC50 [3]: 3.09

Compound: O=C(O)CC[C@@H](NC(=O)c1ccc(COc2ccc(/C=C3\SC(=O)NC3=O)cc2OCC(=O)O)cc1)C(=O)O
- Activity (Escherichia coli [4]): 86%

Compound: O=C(O)CC[C@@H](NC(=O)c1ccc(COc2cccc(/C=C3\SC(=O)NC3=O)c2)cc1)C(=O)O
- Activity (Escherichia coli [4]): 79%

Compound: O=C(O)CC[C@@H](NS(=O)(=O)c1ccc(COc2cccc(/C=C3\SC(=O)NC3=O)c2)cc1)C(=O)O
- Activity (Escherichia coli [5]): 71%

Compound: O=C(O)CC[C@@H](NC(=O)c1cccc(COc2ccc(Cn3ccc(=O)[nH]c3=O)cc2)c1)C(=O)O
- Activity (Escherichia coli [4]): 86%

Compound: O=C(O)CC[C@@H](NC(=O)c1ccc(COc2ccc(/C=C3\SC(=S)NC3=O)cc2OCC(=O)O)cc1)C(=O)O
- pIC50 [1]: 4.47
- MBC (Staphylococcus aureus): > 128 µg/mL
- MIC (Staphylococcus aureus): 128 µg/mL (≈ 223 µM)
- MBC (Pseudomonas aeruginosa): > 128 µg/mL
- MIC (Pseudomonas aeruginosa): > 128 µg/mL
- MBC (Enterococcus faecalis): > 128 µg/mL
- MIC (Enterococcus faecalis): 128 µg/mL (≈ 223 µM)
- MBC (Escherichia coli [2]): > 128 µg/mL
- MIC (Escherichia coli [2]): > 128 µg/mL

Compound: O=C(O)CC[C@@H](NS(=O)(=O)c1ccc(COc2cccc(/C=C3\SC(=S)NC3=O)c2)cc1)C(=O)O
- pIC50 [1]: 4.35
- MBC (Staphylococcus aureus): > 128 µg/mL
- MIC (Staphylococcus aureus): > 128 µg/mL
- MBC (Pseudomonas aeruginosa): > 128 µg/mL
- MIC (Pseudomonas aeruginosa): > 128 µg/mL
- MBC (Enterococcus faecalis): > 128 µg/mL
- MIC (Enterococcus faecalis): > 128 µg/mL
- MBC (Escherichia coli [2]): > 128 µg/mL
- MIC (Escherichia coli [2]): > 128 µg/mL

Compound: O=C(O)CC[C@@H](NS(=O)(=O)c1ccc(COc2ccc(/C=C3\SC(=S)NC3=O)cc2)cc1)C(=O)O
- pIC50 [1]: 3.92

Compound: O=C(O)CC[C@@H](NS(=O)(=O)c1ccc(COc2ccc(/C=C3\SC(=S)NC3=O)cc2OCC(=O)O)cc1)C(=O)O
- pIC50 [3]: 3.33

Compound: O=C(O)CC[C@@H](NC(=O)c1ccc(COc2ccc(Cn3ccc(=O)[nH]c3=O)cc2)cc1)C(=O)O
- Activity (Escherichia coli [4]): 85%
